One data set relates to Skeletonema costatum. Nature of the data set: Aquatic toxicity testing. Format: in vivo.
The nature of data set [1]: Biodegradability in sea water. To be noted: after 28 days.

≈ marks a conversion by molar mass, not a printed value.

By EC50 is commonly meant the concentration at which the effect is half-maximal. Low values mean an effect from little substance, high ones a need for much substance.

In the case of `NCCN1CCNC1=S` [1-(2-aminoethyl)-2-imidazolidinethione], it took 236 mg/L (≈ 1620 µM) to reach a half-maximal effect in the data set with Skeletonema costatum (EC50). In addition, the biodegradability in data set [1] is given as 100%.

Values taken from patent US6013200A, “Low toxicity corrosion inhibitor” (Baker Hughes Incorporated, priority 1997, dated 2000).
